Patent publication US20060041959A1, “Control of plant growth and developmental process” (Universiteit Leiden, priority 2003, published 2006)
“Also recorded” adds a separate entry of the source.

What was measured:
[1] = test system: mutant phenotypes caused by NM—115413.1/NM—106300.1 overexpression constructs; test: Effect of plant growth substance on NM_115413.1/NM_106300.1 overexpressing mutant phenotypes; type: in vivo, Arabidopsis; details: applied to overexpressing lines
From the text: (§1) It is thus likely that overexpression directly or indirectly leads to changes in the levels of plant growth substances. Plant cells affected in this manner can secrete regulatory signals affecting neighboring cells or tissues. It is thus shown herein that by using plant material overexpressing one or more members of the protein family described with the sequence identifiers mentioned, the development of other plant material (including non-transformed material) can be altered towards a more organogenic/embryogenic pathway.

[2] = test system: wild-type arabiodopsis seeds (ecotype Columbia); test: Germination and growth of wild-type Arabidopsis seedlings on ½MS medium containing plant growth substance; type: in vivo
From the text: as §1

## CC(C)[C@@H](C)[C@@H](O)[C@H](O)[C@@H](C)[C@H]1CC[C@H]2[C@@H]3COC(=O)[C@H]4C[C@H](O)[C@H](O)C[C@]4(C)[C@H]3CC[C@]12C [24-epibrassinolide]
[1]
  effect on mutant (overexpression) phenotypes: able to make the mutant phenotypes more vigorous
[2]; 4 μM in ½MS medium, 14 and 28 dag, controls 0.1% DMSO, FIG. 3
  seedling growth phenotype after germination on medium containing the substance: growth aberrations resembling those seen in NM—115413.1 or NM—106300.1 overexpressing seedlings can be observed
[2]; wild-type plants, FIG. 3
  somatic embryogenesis in wild-type plants: somatic embryogenesis was not observed
[2]; wild-type plants, compared with other plant growth substances investigated
  ability to mimic the mutant phenotypes caused by overexpression constructs in wild-type plants: can mimic some of the effects of overexpression of the proteins of the invention; also recorded: most profound effect on wild-type plants
